Experimental data taken from patent US20060079558A1, “R-isomer of 2-{2[N-(2-indanyl)-N-phenylamino]ethyl}piperidine and other dermal anesthetics” (Bridge Pharma. Inc., priority 2004, published 2006).
Entries after “also recorded” stand apart in the source; their conditions may differ.

What was measured:
[1] = cited from earlier work
[2] = tested on: skin on the back of male or female guinea pigs; assay: Dermal anesthetic activity, pin-prick method after dermal application; assay type: in vivo; details: for onset of dermal anesthetic activity (onset time): comparison of enantiomers and racemate, in words; for dermal anesthetic effects (anesthetic score): score after 30 min application, FIG. 1, 10% solution of base in water/DMSO, maximum = 6
Experimental: Approximately 18-24 hours before each experiment, the skin on the back of male or female guinea pigs was shaved and depilated with a commercially available hair remover. The anesthetic action of each agent following dermal application was determined using a “pin-prick” method as described by Aberg (Acta Pharmacol Toxicol, 1972, 31: 273-286). Before and at various intervals after treatment, the area of the skin was tested for the presence or absence of a skin twitch in response to six standardized dermal probings with a pointed metal “algesimeter” at a predetermined maximum load of 10 grams. The average number of probings not producing a skin twitch response was designated as the “anesthetic score”. In this test system no response to six stimuli represents a “maximal anesthetic activity”. In the present calculations, the dermal anesthetic activity was calculated from the time of removal of the test article formulation from the skin until skin twitch responses to all but one pinprick were identified. In experiments on the dermal anesthetic activity, a single area of skin 1 inch square was marked off on the middle of the back of each animal. This area was covered by a 1 inch square, 16 layer thick gauze pad onto which was deposited 0.45 ml of a 10% solution of the test agent dissolved in a mixture of water and DMSO. The gauze pad was covered with a 1.5 inch square sheet of Saran Wrap™ which was attached to the surrounding skin with tape. The entire area was then covered by wrapping an elastic bandage around the trunk of the animal. After a predetermined duration of treatment, the coverings were removed and the skin assessed for the presence of anesthesia as described above. Dermal anesthesia tests were performed at ten-minute intervals to measure onset time and duration of dermal anesthetic activity; comparisons were made with reference compounds and vehicle. All test compounds were in the base form and dissolved in DMSO/water when tested for dermal anesthesia.

[3] = Comparison studies of dermal toxicity; assay type: in vivo; details: in words

Compound | local anesthetic activity ([1]; racemate, U.S. Pat. No. 6,413,987) | tissue toxicity ([1]; racemic mixture, as described in U.S. Pat. No. 6,413,987) | onset of dermal anesthetic activity (onset time) [2] | dermal anesthetic effects (anesthetic score) [2] | dermal toxicity [3]
c1ccc(N(CCC2CCCCN2)C2Cc3ccccc3C2)cc1 (racemic) [RS-LAC-34, 2-{2-[N-(2-indanyl)-N-phenylamino]ethyl}piperidine] | active local anesthetic compound | little, if any, tissue toxicity | – | – | –
c1ccc(N(CCC2CCCCN2)C2Cc3ccccc3C2)cc1 (stereo not shown) [S-LAC-34, reference compound] | – | – | longer onset of action | 2.6 | –
c1ccc(N(CC[C@H]2CCCCN2)C2Cc3ccccc3C2)cc1 [R-LAC-34, R-2-{2-[N-(2-indanyl)-N-phenylamino]ethyl}piperidine] | – | – | shorter onset of action than both the racemate and the S-isomer; also recorded: significantly shorter; also recorded: shorter onset time than the racemic mixture or the S-isomer | 3.5 | low dermal toxicity
